Where a name gives a salt, the structure may show the parent alone.
Legend:
[1] = target: T1, recombinant human 5-HT6 receptor (Homo sapiens, UniProt P50406); experiment: Radioligand binding, competition for [3H]LSD in HEK293 cell membranes; conditions: [3H]LSD displacement, pH 7.4, 37° C., 75 min, read-out: pKi for 5-HT6 (converted)
T1 construct: expressed in transfected cells; host or cells: HEK293
Method: (§1) The binding activity of compounds of this invention in vitro was determined as follows. Duplicate determinations of 5-HT6 ligand affinity were made by competing for binding of [^3H]LSD in cell membranes derived from HEK293 cells stably expressing recombinant human 5-HT6 receptor. Duplicate determinations of 5-HT2A ligand affinity were made by competing for binding of [^3H]Ketanserin (3-(2-(4-(4-fluorobenzoyl)piperidinol)ethyl)-2,4(1H,3H)-quinazolinedione) in cell membranes derived from CHO-K1 cells stably expressing recombinant human 5-HT2A receptor. Membranes were prepared from HEK 293 cell lines by the method described by Monsma et al., Molecular Pharmacology, Vol. 43 pp. 320-327 (1993), and from CHO-K1 cell lines as described by Bonhaus et al., Br J Pharmacol. June; 115(4):622-8 (1995).
(§2) For estimation of affinity at the 5-HT6 receptor, all determinations were made in assay buffer containing 50 mM Tris-HCl, 10 mM MgSO4, 0.5 mM EDTA, 1 mM ascorbic acid, pH 7.4 at 37° C., in a 250 microliter reaction volume. […]
(§3) Assay tubes containing [^3H] […] LSD or [^3H]Ketanserin were determined as radioactive counts per minute using Packard TopCount.
(§4) Displacement of [^3H]LSD or [^3H]Ketanserin from the binding sites was quantified by fitting concentration-binding data to a 4-parameter logistic equation: […]

[2] = target: T2, recombinant human 5-HT2A receptor (Homo sapiens, UniProt P28223); experiment: Radioligand binding, competition for [3H]Ketanserin in CHO-K1 cell membranes; conditions: [3H]Ketanserin displacement, pH 7.4, 32° C., 60 min, read-out: pKi for 5-HT2A (converted)
T2 construct: expressed in transfected cells; host or cells: CHO-K1
T2 sequence (P28223 whole entry): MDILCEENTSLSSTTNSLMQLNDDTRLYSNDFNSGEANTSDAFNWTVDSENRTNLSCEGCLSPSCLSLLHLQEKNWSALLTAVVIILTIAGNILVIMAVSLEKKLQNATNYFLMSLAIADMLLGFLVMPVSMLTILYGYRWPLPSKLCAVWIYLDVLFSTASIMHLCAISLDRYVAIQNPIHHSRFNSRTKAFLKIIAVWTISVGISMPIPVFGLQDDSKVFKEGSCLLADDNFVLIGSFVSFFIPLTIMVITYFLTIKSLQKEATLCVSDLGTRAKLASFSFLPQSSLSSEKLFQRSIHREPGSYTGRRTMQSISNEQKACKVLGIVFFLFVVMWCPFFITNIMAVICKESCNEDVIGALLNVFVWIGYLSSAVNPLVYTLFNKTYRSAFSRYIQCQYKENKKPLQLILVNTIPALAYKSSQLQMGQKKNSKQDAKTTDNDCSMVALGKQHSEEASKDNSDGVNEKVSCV
Method: as §1, §2, §3, §4

T1 sequence (P50406 whole entry): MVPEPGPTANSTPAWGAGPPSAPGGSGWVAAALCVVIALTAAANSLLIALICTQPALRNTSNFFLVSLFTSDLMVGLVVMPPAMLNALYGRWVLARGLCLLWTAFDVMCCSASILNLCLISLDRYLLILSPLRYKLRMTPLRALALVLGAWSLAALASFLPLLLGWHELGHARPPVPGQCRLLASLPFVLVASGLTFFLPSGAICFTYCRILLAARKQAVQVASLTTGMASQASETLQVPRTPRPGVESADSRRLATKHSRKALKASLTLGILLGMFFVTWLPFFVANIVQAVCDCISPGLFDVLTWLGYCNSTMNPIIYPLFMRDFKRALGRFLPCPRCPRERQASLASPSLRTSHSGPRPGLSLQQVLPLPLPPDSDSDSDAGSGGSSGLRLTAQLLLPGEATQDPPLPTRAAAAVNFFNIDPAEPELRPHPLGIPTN

| Ki [1] [nM] | Ki [2] [nM] | melting point [°C] | Structure (SMILES) |
| --- | --- | --- | --- |
| ~0.724 | ~20.4 | – | NCC1CCOc2cc(S(=O)(=O)c3ccccc3)ccc21 (stereo not drawn) [C-(7-Benzenesulfonyl-chroman-4-yl)-methylamine] |
| – | – | 158.1 to 159.8 | CNCC1CCOc2cc(S(=O)(=O)c3ccccc3)ccc21 (stereo not drawn) (as salt: HCl) |

Source: patent publication US7759389B2, “Chroman derivatives and uses thereof” (Roche Palo Alto LLC, priority 2004, dated 2010)
